Reference: PMC9678865, “An odorant-binding protein in the elephant's trunk is finely tuned to sex pheromone (Z)-7-dodecenyl acetate” (Scientific Reports, 2022)
Entries after “also recorded” stand apart in the source; their conditions may differ.

Experiments:
recombinant EmaxOBP1 [1] = target: T1, recombinant EmaxOBP1 (Elephas maximus, UniProt Q8HZN2); test: Titration of recombinant protein with fluorescent probe 1-NPN; type: binding, Asian elephant (Elephas maximus); details: 2 μM protein in 50 mM Tris-HCl pH 7.4, room temperature
T1 sequence (Q8HZN2 entry or part of it): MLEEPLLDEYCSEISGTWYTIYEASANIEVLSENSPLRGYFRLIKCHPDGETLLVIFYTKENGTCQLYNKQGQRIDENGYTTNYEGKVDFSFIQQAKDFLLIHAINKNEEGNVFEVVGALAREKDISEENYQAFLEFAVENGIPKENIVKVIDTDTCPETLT
Experimental: (§1) Affinities of the fluorescent probe N-phenyl-1-naphthylamine (1-NPN) to EmaxOBP1 and LafrOBP1 (both expressed in yeast) were evaluated by titrating a 2 μM solution of each protein in 50 mM Tris-HCl, pH 7.4 with 1 mM 1-NPN in methanol to final concentrations of 2–16 μM. Dissociation constants of other ligands were measured by displacement of the fluorescent reporter 1-NPN from the complex. Accordingly, solutions of protein and 1-NPN, both at the concentration of 2 μM in 50 mM Tris-HCl, pH 7.4, were titrated with 1 mM methanol solutions of each ligand to final concentrations of 2–16 μM. Emission spectra were recorded on a PerkinElmer FL 6500 spectrofluorimeter in a right-angle configuration, at room temperature, with slits of 5 nm for both excitation and emission, using 1 cm path quartz cuvettes. The excitation wavelength was set at 337 nm and intensities were recorded in correspondence with the peak maximum, around 390 nm. Data for 1-NPN were processed with Prism software.

[2] = test system: second major band (apparent mass around 25 kDa) from expression of LafrOBP1 in P. pastoris; test: Binding of 1-NPN to the second band (around 25 kDa) from LafrOBP1 expression; set-up: species or system African elephant (Loxodonta africana); details: purified second band
Description: Based on above-reported proteomic analysis and on the available sequences in the protein databases, we decided to focus our functional study on the OBP1 of both species. Thus, LafrOBP1 and EmaxOBP1 were expressed in the yeast Pichia pastoris using the protocol reported in the Materials and Methods section. We chose to perform functional studies on recombinant proteins because attempts to purify natural LafrOBP1 from its contaminants were unsuccessful (data not shown). The recombinant proteins were secreted in the culture medium, concentrated by ultrafiltration and purified by anion-exchange chromatography, followed by a step of hydrophobic interaction chromatography on Phenyl Sepharose. Figure S3 reports the SDS-PAGE analysis relative to the expression and purification of the two proteins. The expression of EmaxOBP1 produced a single major band migrating with an apparent molecular weight (around 20 kDa), compatible with the calculated mass for this protein (18,506.7 Da). Instead, the expression of the African elephant orthologue afforded two major bands, the first migrating at the same level as EmaxOBP1, the second with an apparent mass around 25 kDa.

[3] = test system: OBP in the trunk wash of the Asian elephant; set-up: method as in PMID 12269821; details: tritium-labelled ligand; radioactivity associated with OBP band; no dissociation constant; cited from earlier work
recombinant LafrOBP1 = recombinant LafrOBP1 (Loxodonta africana, UniProt G3UMG1); test: Competitive binding by displacement of 1-NPN; set-up: species or system African elephant (Loxodonta africana); details: protein and 1-NPN 2 μM each, ligand 2–16 μM
recombinant LafrOBP1, sequence (G3UMG1 entry or part of it): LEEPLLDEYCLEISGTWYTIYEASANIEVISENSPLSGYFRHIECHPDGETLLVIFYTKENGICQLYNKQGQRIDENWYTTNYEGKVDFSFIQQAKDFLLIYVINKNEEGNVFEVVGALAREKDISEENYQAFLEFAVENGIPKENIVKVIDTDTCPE
Experimental: (§2) Recombinant LafrOBP1 and EmaxOBP1 were then tested in ligand-binding assays using the Asian elephant pheromones (Z)-7-dodecenyl acetate and frontalin, and the insect pheromone components found in elephants, exo-brevicomin and (E)-β-farnesene, as well as structurally related compounds, and chemicals of different size and structure, which could contribute to estimate the specificity of these proteins. Both LafrOBP1 and EmaxOBP1 bound the fluorescent probe 1-NPN with good affinity (Fig. 5A), thus enabling the use of the fluorescent displacement assay to evaluate the affinities of other ligands. Some representative curves of competitive binding experiments for LafrOBP1 are shown in Fig. 5B-C, while in the histogram of Fig. 5D the binding spectra of LafrOBP1 and EmaxOBP1 are compared. The specificity of LafrOBP1 can be better appreciated from the graph of Fig. 6, where the affinities of esters to the protein are plotted as a function of the ligand's size.
as §1
(§3) Dissociation constants of other ligands were calculated from the corresponding [IC]50 values (the. concentration of each ligand halving the initial value of fluorescence), using the equation: Kd = [IC]50/1 + [1-NPN]/KNPN, where [1-NPN] is the concentration of free 1-NPN and KNPN the. dissociation constant of the complex OBP/1-NPN.

recombinant EmaxOBP1 [4] = target: T1, recombinant EmaxOBP1; test: Competitive binding by displacement of 1-NPN; set-up: species or system Asian elephant (Elephas maximus); details: protein and 1-NPN 2 μM each, ligand 2–16 μM
Experimental: as §2, §1, §3

[5] = target: natural LafrOBP1 (trunk wash fractions 26–29, also containing its isoform and LafrVEG) (Loxodonta africana, UniProt G3UMG1); test: Competitive fluorescent (1-NPN) ligand-binding assay on crude anion-exchange fractions 26–29 of trunk wash; set-up: species or system African elephant (Loxodonta africana); details: crude trunk wash fractions 26–29 / natural LafrOBP1
natural LafrOBP1 (trunk wash fractions 26–29, also containing its isoform and LafrVEG), sequence (G3UMG1 entry or part of it): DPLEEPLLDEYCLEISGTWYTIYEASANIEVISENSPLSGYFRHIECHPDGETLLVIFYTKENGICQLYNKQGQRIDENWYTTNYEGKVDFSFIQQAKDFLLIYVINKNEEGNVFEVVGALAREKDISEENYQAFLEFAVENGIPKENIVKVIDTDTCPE
Experimental: Given the predominant presence of LafrOBP1 in the trunk wash of the African elephant, we attempted purification of this protein from a crude sample of this secretion by anion-exchange chromatography. Relevant fractions (#26–29) were analysed by SDS-PAGE, (Fig. 2A) and nanoLC-ESI-Q-Orbitrap-MS/MS to identify the proteins present and detect possible PTMs. The same fractions were also tested in ligand-binding assays with some of the two elephants' pheromones and other potential semiochemicals to detect any binding activity (Fig. 2B-C).
Figure 2 (A) Fractionation of a crude extract of trunk wash from the African elephant by anion-exchange chromatography. SDS-PAGE analysis of the fractions showing electrophoretic bands in the low molecular weight range (15–25 kDa). (B) Summary of the affinities to (Z)-7-dodecenyl acetate, (E)-β-farnesene and frontalin measured with crude samples of the same fractions. All of them bound with good affinity both (Z)-7-dodecenyl acetate and (E)-β-farnesene. […] Dissociation constants were evaluated using the procedure adopted when dealing with solutions of a pure protein; as this is not the case, the values have to be taken as a crude indication of the affinity of the ligands for the protein. (C) Examples of the competition curves measured with the three ligands on fraction 27. […]
as §1, with “Accordingly, solutions of protein and 1-NPN, both at the concentration of 2 μM in 50 mM Tris-HCl, pH 7.4, were titrated with 1 mM methanol solutions of each ligand to final concentrations of 2–16 μM.” left out, “Data for 1-NPN were processed with Prism software.” left out

SMILES | binding to recombinant LafrOBP1 (in words) (recombinant LafrOBP1) | binding to recombinant EmaxOBP1 (in words) (recombinant EmaxOBP1 [4]) | further results
c1ccc(Nc2cccc3ccccc23)cc1 [1-NPN, N-phenyl-1-naphthylamine] | – | – | Kd (recombinant EmaxOBP1 [1]): 460 nM; affinity to the 25 kDa band (in words) [2]: did not show any affinity
CCCC/C=C/CCCCCCOC(C)=O [(E)-7-dodecenyl acetate] | – | – | binding to trunk wash OBP (in words) [3]: shown to bind
C=CC(=C)CC/C=C(\C)CCC=C(C)C [(E)-β-farnesene, (6E)-7,11-dimethyl-3-methylene-1,6,10-dodecatriene] | good ligand | – | –
CC/C=C\CCOC(C)=O [(Z)-3-hexenyl acetate] | did not show significant binding | did not show significant binding | –
CCCC/C=C\CCCCCCOC(C)=O [(Z)-7-dodecenyl acetate] | strongest ligand | – | –
CCCCCC/C=C\CCCCCCCC=O [(Z)-9-hexadecenal] | did not show significant binding | did not show significant binding | –
CCCC/C=C\CCCCCCCCCC=O [(Z)-11-hexadecenal] | did not show significant binding; also recorded: did not exhibit significant affinity | did not show significant binding; also recorded: did not exhibit significant affinity | –
CCCC/C=C\CCCCCCCCCCOC(C)=O [(Z)-11-hexadecenyl acetate] | did not show significant binding | did not show significant binding | –
CCCC/C=C\CCCCCCCCCCCC=O [(Z)-13-octadecenal] | did not show significant binding; also recorded: did not exhibit significant affinity | did not show significant binding; also recorded: did not exhibit significant affinity | –
CC1(C)C2CCC1(C)C(O)C2 (stereo not drawn) [borneol] | did not show significant binding | did not show significant binding | –
CCCCCCCCCC=O [decanal] | did not show significant binding; also recorded: did not exhibit significant affinity | did not show significant binding; also recorded: did not exhibit significant affinity | –
CCCCCCCCCCCC=O [dodecanal] | did not show significant binding | did not show significant binding | –
CCCCCCCCCCCCCC(=O)OCC [ethyl myristate] | did not show significant binding | did not show significant binding | –
CC12CCC(CC1)C(C)(C)O2 [eucalyptol] | did not show significant binding | did not show significant binding | binding to recombinant LafrOBP1 (in words) (recombinant LafrOBP1; listed as eucaliptol): did not exhibit significant affinity; binding to recombinant EmaxOBP1 (in words) (recombinant EmaxOBP1 [4]; listed as eucaliptol): did not exhibit significant affinity
C=CCc1ccc(O)c(OC)c1 [eugenol] | did not show significant binding; also recorded: did not exhibit significant affinity | did not show significant binding; also recorded: did not exhibit significant affinity | –
CC[C@H]1O[C@]2(C)CCC[C@H]1O2 [exo-brevicomin, (1R,5S,7R)-7-ethyl-5-methyl-6,8-dioxabicyclo[3.2.1]octane] | – | – | binding to trunk wash fractions (in words) [5]: did not exhibit any affinity
CC(C)=CCC/C(C)=C/CC/C(C)=C/CO [farnesol] | – | – | binding to trunk wash fractions (in words) [5]: as good a ligand as (E)- β-farnesene
CC12CCCC(C)(OC1)O2 (stereo not drawn) [frontalin, 1,5-dimethyl-6,8-dioxabicyclo[3.2.1]octane] | no affinity; also recorded: did not exhibit any affinity | no affinity | binding to trunk wash fractions (in words) [5]: none of them appreciably bound; also recorded: no affinity
CCCCCC=O [hexanal] | did not exhibit significant affinity | did not exhibit significant affinity | –
CCCCCCCC=O [octanal] | did not show significant binding; also recorded: did not exhibit significant affinity | did not show significant binding; also recorded: did not exhibit significant affinity | –
Cc1ccc(O)cc1 [p-cresol] | did not exhibit significant affinity | did not exhibit significant affinity | –
CCCCCCCCCC1CCC(=O)O1 (stereo not drawn) [γ-tridecalactone] | did not show significant binding | did not show significant binding | –
